Data taken from ChEMBL document CHEMBL3507680, “University of Dundee, Gates Library screen for HepG2 cell viability”.

Test: Human HepG2 cell viability assay in 384 well format
Type: toxicity, cell-based
Parameters: dose 125 nL, time 70.5 hour; concentration not given beside the values
Settings: HepG2 cells, read-out: Inhibition

SMILES	cytotoxicity at 70.5 h [%]
CCOCCC(=O)N1C[C@H]2CC[C@@H]1CN(Cc1ccncc1)C2	-11.6
Nc1ccnc(N2CCC(Cc3ccccc3Cl)(C(=O)O)CC2)n1	1.15
COC(=O)c1ccc(-c2noc(CN(CCO)Cc3cccs3)n2)cc1	-10.2
COCCn1ccnc1C1CCCN(c2ncnc3c(C)csc23)C1 (stereo not drawn)	23.8
Cc1ccc(C(=O)N2CC(c3cccnc3)C2)cc1N1CCNC1=O	-7.03
CN(C)[C@H]1CCCCN(C(=O)COCc2nc3cc(F)ccc3[nH]2)C1	15
COCC(=O)N1CCCN(Cc2c(C)nc3ccc(Cl)cn23)CC1	2.35
CN1CCc2[nH]nc(C(=O)N3CCC4(CCCO4)CC3)c2C1	-0.824
COc1ccccc1OC1CCN(C(=O)c2c[nH]c(=O)[nH]c2=O)CC1	-4.88
O=C(COCC(F)(F)C(F)F)N1CCC(c2ncc[nH]2)CC1	-5.35
COCCN1CC(C(=O)N(CCN(C)C)Cc2ccc(C)s2)CC1=O (stereo not drawn)	-4.05
CN1CCN2CCN(Cc3cnc(NCc4ccccc4)nc3)CC2C1 (stereo not drawn)	24
CCC(CC)n1nc(C)cc1NC(=O)C1CCCO1 (stereo not drawn)	-8.67
CC(NCc1cc(O)c2cccc(F)c2n1)c1ccc(S(C)(=O)=O)cc1 (stereo not drawn)	-12.6
Cn1cc(CN2CC[C@@H]3[C@@H](CCC(=O)N3CCc3ccccc3)C2)cn1	-0.863
Cc1cnc(C(=O)N2CCN(C(=O)C(C)C)[C@@H]3CS(=O)(=O)C[C@@H]32)cn1	-6.02
CCNCCOc1ccc(-c2cc(N)nc3[nH]ccc23)cc1	-10.1
CC(=O)NCCC(=O)N(C/C=C/c1ccccc1)CCO	24
COc1cc(N2CCCC(c3nccn3Cc3cccnc3)C2)ncn1 (stereo not drawn)	-14.5
CSc1nnc(CC2CCN(C(=O)Cc3ccncc3)CC2)n1C	-16.8
Cc1nnc(CNC(=O)[C@@H]2C[C@H](NC(=O)C(C)(C)C)CN2C)[nH]1	-9.08
O=C(O)c1ccccc1-c1c(-c2ccccc2)ncn1C[C@H]1CCCN1	-3.04

SMILES	cytotoxicity at 70.5 h [%]
CCN1CC(CN(C)Cc2nc(-c3ccc(C)o3)oc2C)CC1=O (stereo not drawn)	-6.14
Cc1cc(C(=O)N2CC(O)CO2)c2cccc(C)c2n1 (stereo not drawn)	-13
CC(C)Oc1ccc2c(NC(=O)[C@H](C)O)nn(CC(F)(F)F)c2c1	-16.3
COCC[C@]1(O)CCN(Cc2ccccn2)C[C@H]1C	-0.199
CN1CCCC(CCC(=O)NCCc2nnc(N)s2)C1 (stereo not drawn)	9.25
CCCc1nc(N(C)CCN2CCCCCC2)c2cnn(C)c2n1	-11
CC(C)c1nccn1C(C)C(=O)NC1CCN(S(C)(=O)=O)CC1 (stereo not drawn)	3.51
O=C(O)[C@@H]1CN(C(=O)c2ccc3nccnc3c2)C[C@H]1c1ccncc1	-7.07
CNS(=O)(=O)c1ccc(CN(C)Cc2nc3ccc(F)cc3[nH]2)cc1	-4.95
CC(=O)N1CCCN(c2nccc(-c3c(C)nn(C)c3C)n2)CC1	-3.87
CCNc1nc(C)c(C(=O)N(C)Cc2nc(-c3ccncc3)no2)s1	1.19
CCN(CC)C1CCN(c2nccc(C3CCCC3)n2)C1 (stereo not drawn)	-13.5
O=C(c1ccc2cccc(F)c2n1)N1CCN(CCn2cncn2)CC1	-9.3
N#Cc1ccccc1CN1CCC(c2nccn2CC2CCC2)CC1	-1.95
CCCc1nnc(NC2CCN(CCO)CC2)o1	-6.74
Cc1nc(N)cc(NCc2csc(N(C)C)n2)n1	-4.3
CCc1nc(Cn2nc(C3CCNCC3)n(-c3ccccc3)c2=O)cs1	-5.68
Cc1nn(C)c2nc(NC(C)c3n[nH]c(=O)[nH]3)sc12 (stereo not drawn)	-10.8
Cc1ccc(OC2(C(=O)O)CCN(C(=O)CCc3ccco3)CC2)cn1	-0.99
CC(C)N1CC2(CCCN(c3ccnc4ccccc34)C2)CCC1=O (stereo not drawn)	-0.494
CCN(CC)CCc1nc2c([nH]1)CC(c1ccc(Cl)cc1)CNC2=O (stereo not drawn)	-3.81
